Source: ChEMBL document CHEMBL4507286 (2021)

Assays:
[1] = molecular target: RAC-alpha serine/threonine-protein kinase (Homo sapiens) (UniProt P31749)
[2] = molecular target: Ankyrin repeat and protein kinase domain-containing protein 1 (Homo sapiens) (UniProt Q8NFD2)
[3] = molecular target: NUAK family SNF1-like kinase 1 (Homo sapiens) (UniProt O60285)
[4] = molecular target: Aurora kinase A (Homo sapiens) (UniProt O14965)
[5] = molecular target: BMP-2-inducible protein kinase (Homo sapiens) (UniProt Q9NSY1)
[6] = molecular target: Protein-tyrosine kinase 6 (Homo sapiens) (UniProt Q13882)
[7] = molecular target: Calcium/calmodulin-dependent protein kinase type IV (Homo sapiens) (UniProt Q16566)
[8] = molecular target: Cyclin-dependent kinase 11A (Homo sapiens) (UniProt Q9UQ88)
[9] = molecular target: Cyclin-dependent kinase 4 (Homo sapiens) (UniProt P11802)
Sequence of Cyclin-dependent kinase 4 (Homo sapiens) (P11802 whole entry): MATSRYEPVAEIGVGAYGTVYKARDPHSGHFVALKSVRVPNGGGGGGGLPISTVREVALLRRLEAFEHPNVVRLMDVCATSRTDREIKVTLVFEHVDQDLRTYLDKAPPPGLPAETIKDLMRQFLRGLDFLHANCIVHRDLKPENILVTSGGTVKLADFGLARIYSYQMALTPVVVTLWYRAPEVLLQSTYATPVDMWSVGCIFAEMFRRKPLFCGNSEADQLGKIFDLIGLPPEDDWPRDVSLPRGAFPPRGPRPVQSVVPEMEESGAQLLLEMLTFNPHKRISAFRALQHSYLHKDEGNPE

[10] = molecular target: Cyclin-dependent kinase 7 (Homo sapiens, UniProt P50613)
[11] = molecular target: Serine/threonine-protein kinase Chk1 (Homo sapiens) (UniProt O14757)
Sequence of Serine/threonine-protein kinase Chk1 (Homo sapiens) (O14757 whole entry, canonical isoform): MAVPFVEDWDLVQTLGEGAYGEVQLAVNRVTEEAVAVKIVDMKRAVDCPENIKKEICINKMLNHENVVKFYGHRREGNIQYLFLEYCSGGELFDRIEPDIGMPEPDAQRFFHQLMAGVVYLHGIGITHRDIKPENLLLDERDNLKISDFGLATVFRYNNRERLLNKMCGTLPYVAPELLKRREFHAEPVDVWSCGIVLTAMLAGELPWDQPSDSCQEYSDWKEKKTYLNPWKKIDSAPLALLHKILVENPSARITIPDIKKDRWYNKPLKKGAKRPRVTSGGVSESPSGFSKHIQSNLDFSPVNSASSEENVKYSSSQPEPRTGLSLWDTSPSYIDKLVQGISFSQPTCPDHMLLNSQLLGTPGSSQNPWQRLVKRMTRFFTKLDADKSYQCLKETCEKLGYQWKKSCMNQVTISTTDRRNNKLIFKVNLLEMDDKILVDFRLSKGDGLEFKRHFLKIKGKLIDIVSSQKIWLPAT

[12] = molecular target: Casein kinase I isoform gamma-1 (Homo sapiens) (UniProt Q9HCP0)
Sequence of Casein kinase I isoform gamma-1 (Homo sapiens) (Q9HCP0 whole entry, looked up, canonical isoform): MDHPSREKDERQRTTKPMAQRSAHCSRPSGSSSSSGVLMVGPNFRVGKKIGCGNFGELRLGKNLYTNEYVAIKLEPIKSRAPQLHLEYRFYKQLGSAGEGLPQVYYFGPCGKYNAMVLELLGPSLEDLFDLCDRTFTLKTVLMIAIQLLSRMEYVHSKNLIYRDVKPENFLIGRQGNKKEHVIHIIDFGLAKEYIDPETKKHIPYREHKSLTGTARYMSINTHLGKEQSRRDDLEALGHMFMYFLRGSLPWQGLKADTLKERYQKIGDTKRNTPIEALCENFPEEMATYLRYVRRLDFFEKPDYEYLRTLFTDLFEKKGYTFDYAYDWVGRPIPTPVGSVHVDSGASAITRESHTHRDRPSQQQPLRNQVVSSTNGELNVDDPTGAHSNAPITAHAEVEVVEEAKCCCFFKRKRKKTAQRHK

[13] = molecular target: Casein kinase II subunit alpha (Homo sapiens) (UniProt P68400)
Sequence of Casein kinase II subunit alpha (Homo sapiens) (P68400 whole entry, looked up): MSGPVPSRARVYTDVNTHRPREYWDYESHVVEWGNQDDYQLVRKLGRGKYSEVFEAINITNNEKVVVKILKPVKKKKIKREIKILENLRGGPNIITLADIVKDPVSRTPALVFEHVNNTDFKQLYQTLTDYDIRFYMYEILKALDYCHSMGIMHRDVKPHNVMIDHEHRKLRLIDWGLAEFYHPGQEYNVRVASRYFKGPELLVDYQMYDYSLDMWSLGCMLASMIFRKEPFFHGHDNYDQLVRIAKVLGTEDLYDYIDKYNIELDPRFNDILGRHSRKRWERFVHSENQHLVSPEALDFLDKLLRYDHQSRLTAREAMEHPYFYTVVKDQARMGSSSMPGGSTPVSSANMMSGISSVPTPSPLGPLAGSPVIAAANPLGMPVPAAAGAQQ

[14] = tested on: Epidermal growth factor receptor (Homo sapiens), P00533 [G719C]
[15] = molecular target: Ephrin type-A receptor 2 (Homo sapiens) (UniProt P29317)
[16] = molecular target: Ephrin type-A receptor 4 (Homo sapiens) (UniProt P54764)
[17] = molecular target: Ephrin type-A receptor 5 (Homo sapiens) (UniProt P54756)
[18] = molecular target: Ephrin type-B receptor 4 (Homo sapiens) (UniProt P54760)
Sequence of Ephrin type-B receptor 4 (Homo sapiens) (P54760 whole entry): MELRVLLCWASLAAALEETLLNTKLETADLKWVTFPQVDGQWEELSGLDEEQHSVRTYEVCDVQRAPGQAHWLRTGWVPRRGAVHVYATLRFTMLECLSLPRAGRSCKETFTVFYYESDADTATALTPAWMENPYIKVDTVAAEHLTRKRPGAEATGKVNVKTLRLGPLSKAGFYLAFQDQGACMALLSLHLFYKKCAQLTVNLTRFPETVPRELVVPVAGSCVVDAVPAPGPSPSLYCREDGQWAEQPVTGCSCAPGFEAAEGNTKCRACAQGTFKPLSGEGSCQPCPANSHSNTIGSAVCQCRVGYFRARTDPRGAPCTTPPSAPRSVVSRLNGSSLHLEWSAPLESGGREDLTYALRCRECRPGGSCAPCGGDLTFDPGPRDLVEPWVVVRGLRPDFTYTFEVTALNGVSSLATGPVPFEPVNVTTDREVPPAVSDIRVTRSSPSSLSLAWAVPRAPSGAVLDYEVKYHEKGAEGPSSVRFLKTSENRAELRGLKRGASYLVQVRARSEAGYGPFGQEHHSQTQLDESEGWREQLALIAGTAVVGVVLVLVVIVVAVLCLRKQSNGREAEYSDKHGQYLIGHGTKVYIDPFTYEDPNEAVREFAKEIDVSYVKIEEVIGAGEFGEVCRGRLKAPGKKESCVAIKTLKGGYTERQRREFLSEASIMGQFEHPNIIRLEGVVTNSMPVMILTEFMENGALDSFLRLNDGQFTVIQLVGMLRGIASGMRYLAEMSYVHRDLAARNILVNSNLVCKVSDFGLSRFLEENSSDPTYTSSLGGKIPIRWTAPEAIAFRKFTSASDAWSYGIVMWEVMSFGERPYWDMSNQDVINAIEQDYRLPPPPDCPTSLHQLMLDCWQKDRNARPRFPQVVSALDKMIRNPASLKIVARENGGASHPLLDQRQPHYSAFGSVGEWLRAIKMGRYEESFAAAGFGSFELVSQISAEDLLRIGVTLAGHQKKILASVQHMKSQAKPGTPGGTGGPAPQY

[19] = molecular target: Mitogen-activated protein kinase 8 (Homo sapiens) (UniProt P45983)
[20] = tested on: Mast/stem cell growth factor receptor Kit (Homo sapiens), P10721 [A829P]
[21] = molecular target: Mitogen-activated protein kinase kinase kinase 2 (Homo sapiens) (UniProt Q9Y2U5)
[22] = molecular target: Mitogen-activated protein kinase kinase kinase kinase 3 (Homo sapiens) (UniProt Q8IVH8)
[23] = molecular target: Mitogen-activated protein kinase kinase kinase kinase 4 (Homo sapiens) (UniProt O95819)
[24] = molecular target: Maternal embryonic leucine zipper kinase (Homo sapiens) (UniProt Q14680)
[25] = tested on: Hepatocyte growth factor receptor (Homo sapiens), P08581 [Y1235D]
[26] = molecular target: Misshapen-like kinase 1 (Homo sapiens) (UniProt Q8N4C8)
Sequence of Misshapen-like kinase 1 (Homo sapiens) (Q8N4C8 whole entry, looked up): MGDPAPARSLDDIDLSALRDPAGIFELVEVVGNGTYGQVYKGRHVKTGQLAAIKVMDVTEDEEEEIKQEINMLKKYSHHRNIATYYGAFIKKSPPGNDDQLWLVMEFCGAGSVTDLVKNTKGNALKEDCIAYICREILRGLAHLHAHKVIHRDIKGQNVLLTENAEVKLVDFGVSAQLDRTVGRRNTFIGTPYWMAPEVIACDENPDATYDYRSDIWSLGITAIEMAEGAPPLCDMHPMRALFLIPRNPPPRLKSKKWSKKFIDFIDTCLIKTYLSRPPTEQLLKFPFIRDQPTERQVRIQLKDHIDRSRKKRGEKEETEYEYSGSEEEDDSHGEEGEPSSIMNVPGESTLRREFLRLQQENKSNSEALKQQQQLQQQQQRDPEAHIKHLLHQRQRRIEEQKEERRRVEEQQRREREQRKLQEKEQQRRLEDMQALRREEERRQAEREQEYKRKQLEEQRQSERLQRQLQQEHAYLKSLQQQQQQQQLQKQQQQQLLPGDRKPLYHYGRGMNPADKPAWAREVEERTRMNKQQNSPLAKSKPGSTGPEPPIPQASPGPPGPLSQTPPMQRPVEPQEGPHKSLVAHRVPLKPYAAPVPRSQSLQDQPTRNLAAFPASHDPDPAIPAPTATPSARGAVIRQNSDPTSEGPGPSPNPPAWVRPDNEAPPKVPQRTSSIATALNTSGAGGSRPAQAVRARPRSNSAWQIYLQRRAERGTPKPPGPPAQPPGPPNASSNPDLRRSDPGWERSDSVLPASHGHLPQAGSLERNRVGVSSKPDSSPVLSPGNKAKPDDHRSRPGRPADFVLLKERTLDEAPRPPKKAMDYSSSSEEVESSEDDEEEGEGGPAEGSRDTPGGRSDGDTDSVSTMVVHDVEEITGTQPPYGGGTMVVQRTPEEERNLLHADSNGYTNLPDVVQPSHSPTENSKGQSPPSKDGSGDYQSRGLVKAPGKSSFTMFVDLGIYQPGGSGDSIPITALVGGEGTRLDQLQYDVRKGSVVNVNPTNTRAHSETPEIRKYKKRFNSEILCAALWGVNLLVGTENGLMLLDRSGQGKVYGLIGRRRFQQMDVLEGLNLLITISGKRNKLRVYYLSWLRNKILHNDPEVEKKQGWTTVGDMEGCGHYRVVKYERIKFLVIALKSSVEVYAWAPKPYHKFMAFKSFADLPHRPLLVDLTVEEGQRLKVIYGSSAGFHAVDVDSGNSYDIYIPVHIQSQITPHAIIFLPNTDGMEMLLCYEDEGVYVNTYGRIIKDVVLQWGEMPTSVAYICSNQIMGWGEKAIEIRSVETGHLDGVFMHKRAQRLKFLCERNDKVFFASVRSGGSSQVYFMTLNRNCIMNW

[27] = molecular target: Serine/threonine-protein kinase Nek4 (Homo sapiens) (UniProt P51957)
[28] = molecular target: Serine/threonine-protein kinase Nek7 (Homo sapiens) (UniProt Q8TDX7)
Sequence of Serine/threonine-protein kinase Nek7 (Homo sapiens) (Q8TDX7 whole entry, looked up): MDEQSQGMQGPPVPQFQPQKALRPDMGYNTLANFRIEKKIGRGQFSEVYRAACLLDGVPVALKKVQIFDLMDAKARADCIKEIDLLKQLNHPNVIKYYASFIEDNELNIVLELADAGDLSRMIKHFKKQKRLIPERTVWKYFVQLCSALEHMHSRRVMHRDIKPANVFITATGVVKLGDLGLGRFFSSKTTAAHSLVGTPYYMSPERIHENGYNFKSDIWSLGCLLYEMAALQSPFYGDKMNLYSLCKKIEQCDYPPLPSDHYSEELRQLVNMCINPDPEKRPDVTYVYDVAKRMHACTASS

[29] = molecular target: Serine/threonine-protein kinase PAK 2 (Homo sapiens) (UniProt Q13177)
[30] = molecular target: Serine/threonine-protein kinase PAK 4 (Homo sapiens) (UniProt O96013)
[31] = molecular target: Cyclin-dependent kinase 18 (Homo sapiens) (UniProt Q07002)
[32] = molecular target: Phosphatidylinositol 4,5-bisphosphate 3-kinase catalytic subunit alpha isoform (Homo sapiens) (UniProt P42336)
[33] = molecular target: Phosphatidylinositol 4-phosphate 5-kinase type-1 gamma (Homo sapiens) (UniProt O60331)
[34] = molecular target: Phosphatidylinositol 5-phosphate 4-kinase type-2 gamma (Homo sapiens) (UniProt Q8TBX8)
[35] = molecular target: Protein kinase C theta type (Homo sapiens) (UniProt Q04759)
[36] = molecular target: Dual serine/threonine and tyrosine protein kinase (Homo sapiens) (UniProt Q6XUX3)
[37] = molecular target: Rho-associated protein kinase 2 (Homo sapiens) (UniProt O75116)
[38] = molecular target: Ribosomal protein S6 kinase alpha-1 (Homo sapiens) (UniProt Q15418)
[39] = molecular target: Serine/threonine-protein kinase Sgk1 (Homo sapiens) (UniProt O00141)
[40] = molecular target: Serine/threonine-protein kinase TBK1 (Homo sapiens) (UniProt Q9UHD2)
[41] = molecular target: Testis-specific serine/threonine-protein kinase 1 (Homo sapiens) (UniProt Q9BXA7)
[42] = molecular target: Serine/threonine-protein kinase ULK3 (Homo sapiens) (UniProt Q6PHR2)
[43] = molecular target: Phosphatidylinositol 3-kinase catalytic subunit type 3 (Homo sapiens) (UniProt Q8NEB9)
[44] = molecular target: D(1A) dopamine receptor (Homo sapiens) (UniProt P21728); settings: Compound concentration 10.0 uM
[45] = molecular target: D(1B) dopamine receptor (Homo sapiens) (UniProt P21918); settings: Compound concentration 10.0 uM
Sequence of D(1B) dopamine receptor (Homo sapiens) (P21918 whole entry): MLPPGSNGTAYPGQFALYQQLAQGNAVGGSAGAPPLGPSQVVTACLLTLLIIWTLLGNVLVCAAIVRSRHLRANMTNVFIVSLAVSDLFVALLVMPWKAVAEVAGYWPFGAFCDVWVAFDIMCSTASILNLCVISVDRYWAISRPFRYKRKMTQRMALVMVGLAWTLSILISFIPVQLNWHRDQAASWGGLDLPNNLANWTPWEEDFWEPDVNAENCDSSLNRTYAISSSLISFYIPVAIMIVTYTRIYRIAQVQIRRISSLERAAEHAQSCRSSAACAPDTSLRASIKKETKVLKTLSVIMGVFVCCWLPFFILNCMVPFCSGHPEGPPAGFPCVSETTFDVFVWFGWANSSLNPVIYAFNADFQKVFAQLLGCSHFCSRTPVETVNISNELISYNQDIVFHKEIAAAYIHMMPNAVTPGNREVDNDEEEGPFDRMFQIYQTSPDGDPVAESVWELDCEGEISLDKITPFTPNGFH

[46] = molecular target: Kappa-type opioid receptor (Homo sapiens) (UniProt P41145); settings: Compound concentration 10.0 uM
[47] = Compound concentration 1000.0 nM
[48] = Compound concentration 100.0 nM

## C[C@H](NC(=O)Nc1cc2[nH]ncc2c(CO)n1)c1ccccn1 [ERKi-NC]
[1]; [47]
  residual activity: 90%
[2]; [47]
  residual activity: 100%
[3]; [47]
  residual activity: 100%
[4]; [47]
  residual activity: 100%
[5]; [47]
  residual activity: 100%
[6]; [47]
  residual activity: 100%
[7]; [47]
  residual activity: 96.4%
[8]; [47]
  residual activity: 95.4%
[9]; [47]
  residual activity: 74.2%
[10]; [47]
  residual activity: 100%
[11]; [47]
  residual activity: 100%
[12]; [47]
  residual activity: 100%
[13]; [47]
  residual activity: 100%
[14]; [47]
  residual activity: 100%
[15]; [47]
  residual activity: 100%
[16]; [47]
  residual activity: 61%
[17]; [47]
  residual activity: 100%
[18]; [47]
  residual activity: 100%
[19]; [47]
  residual activity: 63.3%
[20]; [47]
  residual activity: 100%
[21]; [47]
  residual activity: 98.4%
[22]; [47]
  residual activity: 100%
[23]; [47]
  residual activity: 100%
[24]; [47]
  residual activity: 100%
[25]; [47]
  residual activity: 100%
[26]; [47]
  residual activity: 77.7%
[27]; [47]
  residual activity: 83.9%
[28]; [47]
  residual activity: 98%
[29]; [47]
  residual activity: 94.3%
[30]; [47]
  residual activity: 90.2%
[31]; [47]
  residual activity: 100%
[32]; [47]
  residual activity: 100%
[33]; [47]
  residual activity: 99.3%
[34]; [47]
  residual activity: 100%
[35]; [47]
  residual activity: 100%
[36]; [47]
  residual activity: 100%
[37]; [47]
  residual activity: 88.4%
[38]; [47]
  residual activity: 90.3%
[39]; [47]
  residual activity: 97.4%
[40]; [47]
  residual activity: 48.3%
[41]; [47]
  residual activity: 99%
[42]; [47]
  residual activity: 98.9%
[43]; [47]
  residual activity: 97%
[44]
  inhibition: 4.28%
[45]
  inhibition: 7.55%
[46]
  inhibition: 22.9%

## C[C@@H](NC(=O)Nc1cc2[nH]ncc2c(CO)n1)c1ccccc1 [ERKi]
[1]; [48]
  residual activity: 100%
[2]; [48]
  residual activity: 78.2%
[3]; [48]
  residual activity: 94.9%
[4]; [48]
  residual activity: 82%
[5]; [48]
  residual activity: 91.9%
[6]; [48]
  residual activity: 86.6%
[7]; [48]
  residual activity: 100%
[8]; [48]
  residual activity: 100%
[9]; [48]
  residual activity: 86.6%
[10]; [48]
  residual activity: 73.6%
[11]; [48]
  residual activity: 97.1%
[12]; [48]
  residual activity: 83%
[13]; [48]
  residual activity: 94%
[14]; [48]
  residual activity: 95.7%
[15]; [48]
  residual activity: 100%
[16]; [48]
  residual activity: 100%
[17]; [48]
  residual activity: 87.9%
[18]; [48]
  residual activity: 87.6%
[19]; [48]
  residual activity: 93.7%
[20]; [48]
  residual activity: 55.1%
[21]; [48]
  residual activity: 87.3%
[22]; [48]
  residual activity: 84.5%
[23]; [48]
  residual activity: 88.5%
[24]; [48]
  residual activity: 58.7%
[25]; [48]
  residual activity: 90.5%
[26]; [48]
  residual activity: 90.1%
[27]; [48]
  residual activity: 86.6%
[28]; [48]
  residual activity: 76.9%
[29]; [48]
  residual activity: 86.3%
[30]; [48]
  residual activity: 93.7%
[31]; [48]
  residual activity: 100%
[32]; [48]
  residual activity: 86%
[33]; [48]
  residual activity: 89.9%
[34]; [48]
  residual activity: 95%
[35]; [48]
  residual activity: 100%
[36]; [48]
  residual activity: 91.6%
[37]; [48]
  residual activity: 44.7%
[38]; [48]
  residual activity: 89.9%
[39]; [48]
  residual activity: 62.5%
[40]; [48]
  residual activity: 84.8%
[41]; [48]
  residual activity: 94.6%
[42]; [48]
  residual activity: 68.1%
[43]; [48]
  residual activity: 71.2%
[44]
  inhibition: -3.5%
[45]
  inhibition: 21.1%
[46]
  inhibition: 10.3%
